In PMC5966403 (2018):

Experiments:
[1] = tested on: TSL2 (RNA, hairpin) AUUCCUUAAAUUAAGGAGU; test: TO-PRO-1 fluorescence displacement; details: Na+ (185 mM NaCl, 8 mM Na2HPO4); pH 7, 0.1 mM EDTA, 40 μg/mL BSA; 0.5 μM RNA; TO-PRO-1 (1 μM) displaced
[2] = tested on: TSL2 (RNA, hairpin) AUUCCUUAAAUUAAGGAGU; test: NMR (TOCSY) chemical-shift perturbation; details: 40–50 μM RNA, 20 equivalents PK4C9; shifts at U2 and U19
[3] = tested on: TSL2 (RNA, hairpin) AUUCCUUAAAUUAAGGAGU; test: RiboGreen fluorescence displacement; details: Na+ (185 mM NaCl, 8 mM Na2HPO4); RiboGreen (300 nM) displaced

Row | EC50 [1] | binding [2] | binding [3] | SMILES
1 | 85.9 µM |  |  | O=C(c1cnc(C(=O)c2c[nH]c3ccccc23)[nH]1)c1c[nH]c2ccccc12
2 | 4.5 µM |  |  | N=C(N)c1ccc(Nc2ccc(-c3cc4ccc(C(=N)N)cc4[nH]3)cc2)cc1
3 | 16 µM | yes | yes | O=C(c1cnc(C(=O)c2c[nH]c3cc(O)ccc23)[nH]1)c1c[nH]c2ccccc12
